Columns and labels:
MCF-7 (breast cancer) = assay: MTT antiproliferative assay, MCF-7; type: cell-based; conditions: Homo sapiens, MCF7, 48 h incubation
Procedure: (§1) Two series of new tetrahydropyridothienopyrimidines were evaluated for their cytotoxicity against a panel of cell lines, including MCF-7 (breast cancer), SW480 (colon cancer), PC-3 (prostate cancer), HEPG-2 (liver cancer) and HUVEC (human umbilical vein endothelial cell) using 3-(4,5-dimethyl- thiazol-2-yl)-2,5-diphenyltetrazolium bromide (MTT) assay. Sorafenib was used as a positive control. The cytotoxicity is expressed as the concentration that inhibits 50% of cell viability (IC50). […] The preliminary SAR is evaluated on the basis of cytotoxicity results of phenyl derivatives (11a–k) and pyridine derivatives (11l–11y).The mesomeric effect didn’t improve the cytotoxicity of compound 11d in the first series.
(§2) Cytotoxicity of the compounds was measured by detecting the ability of cells in transforming MTT into a purple formazan dye. The different cell lines were provided by the National Cell Bank of Iran (Pastor Institute, Tehran, Iran). The required materials and reagents were purchased from Sigma. After the cell culture in RPMI-1640 medium and DMEM containing 10% FBS (Gibco, Milano, Italy), the suspension of MCF-7 (7000) and other cells (5000) were poured into 96 well plates and incubated in a humidified incubator containing 5% CO2 at 37 °C for 24 h. Subsequently, a solution of the compounds in DMSO was added to these plates and incubated for 48 h. After incubation, the solution of 5% 3-(4,5-Dimethyl-2-thiazolyl)-2,5-diphenyl-2H-tetrazolium bromide (MTT) was added to all the wells and incubation was continued for another 4 h. The record of color intensity of the formazan solution was at 570 nm by Bio-Rad microplate reader (Model 680) which reflects the cell growth condition.

PC-3 (prostate cancer) = assay: MTT antiproliferative assay, PC-3; type: cell-based; conditions: 48 h incubation
Procedure: as §1, §2

SW480 (colon cancer) = assay: MTT antiproliferative assay, SW480; type: cell-based; conditions: Homo sapiens, SW480, 48 h incubation
Procedure: as §1, §2

HEPG-2 (liver cancer) = assay: MTT antiproliferative assay, HEPG-2; type: cell-based; conditions: Homo sapiens, HepG2, 48 h incubation
Procedure: as §1, §2

[1] = tested on: HUVEC (human umbilical vein endothelial cell); assay: MTT antiproliferative assay, HUVEC; type: cell-based; conditions: Homo sapiens, HUVEC; MTT assay, 48 h incubation
Procedure: as §1, §2

MRC5 normal cell line = assay: MTT cytotoxicity against normal cell line MRC5; type: cell-based; conditions: for IC50: Homo sapiens, MRC5, MTT assay, normal cell line; for SI (Selectivity Index): IC50 value normal cell (MRC5)/IC50 value cancer cell (MCF-7)
Procedure: as §2

HUVEC cells = assay: Annexin V/PI flow cytometry apoptosis analysis, HUVEC; type: cell-based, human; conditions: IC50 concentration
Procedure: (§3) The experiment was conducted by flow cytometry analysis of […] cells with propidium iodide (PI) and annexin V-fluorescein isothiocyanate (annexine V-FITC).
(§4) Then, cells were trypsinized, rinsed with phosphate-bufferede buffered saline (PBS) and then centrifuged at 1200 rpm for 3 min. After this, the binding buffer (500 μL) was added to the resulting cells, followed by addition and mixing with […] and PI (5 μL). After this, the samples were incubated in dark for 10 to 15 min at room temperature, and then the cellular analysis was measured by flow cytometer (FACS Calibur Bectone-Dickinson).

MCF-7 cells [2] = assay: Cell cycle analysis by flow cytometry, MCF-7; type: cell-based; conditions: MCF-7, IC50 concentration, 48 h
Procedure: We can conclude that compound 11n induces cellular apoptosis in […]. An increase in sub-G1 area is an indicative of apoptosis.
After trypsinization and rinsing with PBS, the cells were centrifuged at 1200 rpm for 5 min and then incubated with PBS and fixed in ice-cooled 70% ethanol. After washing with PBS, the cells were resuspended in RNase A (0.1 mg/mL) and incubated for 5 h. Then, staining with PI ([…]) and incubation for 15 min were performed. By using Novocyte flow cytometer (ACEA Biosciences) the analysis was done and the calculation of cell cycle distributions was done by NovoExpress 1.1.0 software.

[3] = tested on: chick chorioallantoic membrane (CAM); assay: Chick chorioallantoic membrane (CAM) anti-angiogenic assay; type: in vivo; conditions: IC50 concentration, compared with Sorafenib as positive control
Procedure: The hydrogen bonding between NH groups of urea and target proteins were known to give rise to better inhibition of an important growth factor receptor (VEGFR-2) involved in the process of angiogenesis. Thus, the chick chorioallantoic membrane (CAM) assay was utilized as an in-vivo technique to evaluate the anti-vascular effects. Therefore, the anti-angiogenic strength of compounds were investigated by a cheap and simple CAM assay (Figs. 4, 5)[32],[33]. The anti-angiogenic strength was measured and compared with DMSO (control) and Sorafenib as a positive control.
All eggs were supplied from (Poultry Breeding Farm, Tehran, Iran). Since the allantois of the chick embryo appears at about 3.5 days of incubation, the corresponding eggs were incubated (37.5 °C, relative humidity: 55–65%). To decrease the risk of infection, the particular regions of the egg, e.g., the front side of the embryo were cleaned and sterilized with 70% EtOH. On the 6th incubation day, a false air sac was created directly over the CAM, permitting its detachment from the shell membrane. The procedure was continued through a square incision over the CAM. The prepared window in a square form (1 × 1 cm), was covered by a flexible film and then transported to the incubator. On the 8th incubation day, the particular paper discs (Whatman) were coated with target agents and placed in the central area of the corresponding window. The surface of CAM was visually evaluated on the 12th incubation day using the stereomicroscope. We decided to use the number and the length of capillary blood vessels as the index of anti-angiogenic activity. Consequently, the prepared images were analyzed by the advantageous software, Image J[22],[23].

MCF-7 cells [4] = assay: Annexin V/PI flow cytometry apoptosis analysis, MCF-7; type: cell-based; conditions: MCF-7, IC50 concentration
Procedure: as §3, §4

caspase-3 = assay: Caspase-3 level by ELISA in MCF-7 cells; type: cell-based, human; conditions: 24 h, 11n at 2.67 μM, Sorafenib at 7.06 μM
Procedure: The activity of caspase (cysteinyl-aspartate-specific proteases) as intracellular cell death enzymes has been characterized. So, the […] the process[28]–[31].
Caspase-3 activity was measured using a caspase-3 (Active) (human) ELISA kit, MBS450774, according to the manufacturer’s instructions.

Row | Compound | IC50 (MCF-7 (breast cancer)) [µM] | IC50 (PC-3 (prostate cancer)) [µM] | IC50 (SW480 (colon cancer)) [µM] | IC50 (HEPG-2 (liver cancer)) [µM] | IC50 [1] [µM] | IC50 (MRC5 normal cell line) [µM] | Early apoptotic cells (Q3) (HUVEC cells; 48 h, one replicate) [%] | Late apoptotic cells (Q2) (HUVEC cells; 48 h, one replicate) [%] | Percentage of cell population in the S phase (MCF-7 cells [2]) [%] | Inhibitory effect on growing CAM (in words) [3] | SI (Selectivity Index) (MRC5 normal cell line) | Apoptosis induction (in words) (HUVEC cells) | Apoptosis induction (in words) (MCF-7 cells [4]) | melting point [°C] | Casp3 conc. (caspase-3) [ng/mL]
1 | Cc1cccc(NC(=O)Nc2nnc(Sc3ncnc4sc5c(c34)CCN(Cc3ccncc3)C5)s2)c1 [Compound 11m, 1-(5-((7-(pyridin-4-ylmethyl)-5,6,7,8-tetrahydropyrido[4',3':4,5]thieno[2,3-d]pyrimidin-4-yl)thio)-1,3,4-thiadiazol-2-yl)-3-(m-tolyl)urea] | 3.35 ± 0.01 | 11.79 ± 0.11 | 61.23 ± 0.44 | 27.76 ± 0.13 | 1.15 ± 0.03 | 33.2 ± 0.44 | 10.1 | 52.5 | 32.9 | slightly weaker inhibitory effects | – | – | – | – | –
2 | O=C(Nc1ccc(Cl)c(Cl)c1)Nc1nnc(Sc2ncnc3sc4c(c23)CCN(Cc2ccccc2)C4)s1 [Compound 11h, 1-(5-((7-benzyl-5,6,7,8-tetrahydropyrido[4',3':4,5]thieno[2,3-d]pyrimidin-4-yl)thio)-1,3,4-thiadiazol-2-yl)-3-(3,4-dichlorophenyl)urea] | 8.52 ± 0.02 | 70.2 ± 1.92 | 64.2 ± 2.2 | 53.71 ± 0.5 | 7.44 ± 0.06 | 41.2 ± 0.45 | – | – | – | slightly weaker inhibitory effects | 4.8 | unable to induce apoptosis | unable to induce apoptosis | 190 to 192 | –
3 | CNC(=O)c1cc(Oc2ccc(NC(=O)Nc3ccc(Cl)c(C(F)(F)F)c3)cc2)ccn1 [Sorafenib, reference compound] | 7.06 ± 0.17 | 5.45 ± 0.11 | 19.8 ± 0.12 | 29.6 ± 0.31 | 2.81 ± 0.71 | – | – | – | – | – | – | – | – | – | 4.54 ± 0.25
4 | Cc1cccc(NC(=O)Nc2nnc(Sc3ncnc4sc5c(c34)CCN(Cc3ccccc3)C5)s2)c1 [Compound 11b, 1-(5-((7-benzyl-5,6,7,8-tetrahydropyrido[4',3':4,5]thieno[2,3-d]pyrimidin-4-yl)thio)-1,3,4-thiadiazol-2-yl)-3-(m-tolyl)urea] | 8.22 ± 0.09 | 46.8 ± 1.49 | 67.7 ± 2.53 | 48.1 ± 0.22 | 18.89 ± 0.09 | 32.1 ± 0.92 | – | – | – | – | 3.9 | unable to induce apoptosis | unable to induce apoptosis | 138 to 139 | –
5 | O=C(Nc1cccc(C(F)(F)F)c1)Nc1nnc(Sc2ncnc3sc4c(c23)CCN(Cc2ccncc2)C4)s1 [Compound 11x, 1-(5-((7-(pyridin-4-ylmethyl)-5,6,7,8-tetrahydropyrido[4',3':4,5]thieno[2,3-d]pyrimidin-4-yl)thio)-1,3,4-thiadiazol-2-yl)-3-(3-(trifluoromethyl)phenyl)urea] | 9.36 ± 0.06 | 32.9 ± 0.61 | 60.55 ± 0.41 | 44.6 ± 0.52 | 9.15 ± 0.02 | – | – | – | – | – | – | – | – | 241 to 243 | –
6 | Cc1ccc(NC(=O)Nc2nnc(Sc3ncnc4sc5c(c34)CCN(Cc3ccncc3)C5)s2)cc1Cl [Compound 11w, 1-(3-chloro-4-methylphenyl)-3-(5-((7-(pyridin-4-ylmethyl)-5,6,7,8-tetrahydropyrido[4',3':4,5]thieno[2,3-d]pyrimidin-4-yl)thio)-1,3,4-thiadiazol-2-yl)urea] | 6.8 ± 0.05 | 9.42 ± 0.63 | 71.9 ± 1.1 | 38.5 ± 0.42 | 6.23 ± 0.03 | – | – | – | – | – | – | – | – | 157 to 159 | –
